pEC50, pIC50, pKi: −log10 of the molar value. Where two headings read alike, the source gives them in different places.
Columns and labels:
[1] = tested on: Sal. Typhimurium S8587; assay: Minimum inhibitory concentration vs microorganisms; conditions: Wellcotest broth plus 7% lysed horse blood, 18 hours, 37°C
Description: (§2) The culture medium used in the test was Wellcotest broth to which lysed horse blood had been added at a final concentration of 7%. The assay was semi-automated employing 96-well Microtiter plates, and growth was monitored visually.

[2] = tested on: Staph. Aureus CN491; assay: Minimum inhibitory concentration vs microorganisms; conditions: Wellcotest broth plus 7% lysed horse blood, 18 hours, 37°C
Description: as §2

[3] = tested on: Ehrlich ascites carcinoma; assay: Cytotoxicity in cell culture (inhibition of cell growth); assay type: cell-based; conditions: mouse line, continuous exposure 72 hours
Description: (§1) The cytotoxic effects of various compounds were measured by the inhibition of mammalian cell growth in culture. Cell lines were grown in RPMI-1640 media prepared without folic acid but supplemented with 10nM calcium leucovorin, 25mM HEPES and 10% dialysed fetal bovine serum. In the case of human medulloblastoma cells (Daoy), the media (containing undialysed 10% fetal bovine serum) was pretreated with the enzyme thymidine phosphorylase (20 units/ml for 30 mins. at 37°C) to remove endogenous thymidine. Cells were seeded into 96 well microtiter plates (at densities determined to give log phase growth of control cells at the end of the assay) in 150µl of medium and grown at 37°C in a humidified incubator at 6% CO₂ for 24 hours. Compounds were prepared in media at four times the highest concentration to be tested; two-fold serial dilutions were made, and compounds were added to cells. […] The EC₅₀, defined as the concentration of compound required to reduce growth to 50% of the control, was determined from a plot of per cent inhibition versus log concentration. Cells were continuously exposed to inhibitor for 72 hours.

[4] = tested on: HCT8 colon adenocarcinoma; assay: as above; assay type: cell-based; conditions: HCT-8, human line, continuous exposure 72 hours
Description: as §1

[5] = tested on: D98 bone marrow cells; assay: as above; assay type: cell-based; conditions: human line, continuous exposure 72 hours
Description: as §1

[6] = tested on: Daoy medulloblastoma; assay: as above; assay type: cell-based; conditions: human line, continuous exposure 72 hours, medium pretreated with thymidine phosphorylase
Description: as §1

[7] = tested on: MCF7 breast adenocarcinoma; assay: as above; assay type: cell-based; conditions: human line, continuous exposure 72 hours
Description: as §1

[8] = tested on: KB3-1 epidermoid carcinoma; assay: as above; assay type: cell-based; conditions: KB 3-1, human line, continuous exposure 72 hours
Description: as §1

[9] = tested on: CCRF-CEM T cells; assay: as above; assay type: cell-based; conditions: human line, continuous exposure 72 hours
Description: as §1

[10] = tested on: S180 sarcoma; assay: as above; assay type: cell-based; conditions: S-180, mouse line, continuous exposure 72 hours
Description: as §1

[11] = tested on: P388 lymphoid neoplasm; assay: as above; assay type: cell-based; conditions: mouse line, continuous exposure 72 hours
Description: as §1

[12] = tested on: L cells (derived from connective tissue); assay: as above; assay type: cell-based; conditions: mouse line, continuous exposure 72 hours
Description: as §1

[13] = tested on: GC3C1 colon carcinoma; assay: as above; assay type: cell-based; conditions: GC3/C1, human line, continuous exposure 72 hours
Description: as §1

[14] = tested on: Str. Pyogenes CN10; assay: Minimum inhibitory concentration vs microorganisms; conditions: Wellcotest broth plus 7% lysed horse blood, 18 hours, 37°C
Description: as §2

[15] = Brain distribution in mice (brain and plasma concentrations by HPLC); assay type: in vivo; conditions: female CD1 mice, 30 or 40 minutes after dose; Compound 1 17mg/kg i.v., Compound 2 10mg/kg i.v., piritrexim 200mg/kg i.p., trimetrexate 100mg/kg i.p.; average of several experiments
Description: Female CD1 mice were dosed with Compound 1 (17mg/kg, i.v.), Compound 2 (10mg/kg, i.v.), piritrexim (200mg/kg,i.p.) or trimetrexate (100mg/kg, i.p.). Brain and plasma samples were collected 30 or 40 minutes later. The drugs were extracted from the samples, and their concentrations were determined using HPLC. The numbers represent the average of several experiments.

[16] = tested on: Past. Multocida ATCC6587; assay: Minimum inhibitory concentration vs microorganisms; conditions: Wellcotest broth plus 7% lysed horse blood, 18 hours, 37°C
Description: as §2

[17] = tested on: Str. Agalactiae CN1143; assay: Minimum inhibitory concentration vs microorganisms; conditions: Wellcotest broth plus 7% lysed horse blood, 18 hours, 37°C
Description: as §2

[18] = tested on: Candida Albicans CN1863; assay: Minimum inhibitory concentration vs microorganisms; conditions: Wellcotest broth plus 7% lysed horse blood, 18 hours, 37°C
Description: as §2

[19] = tested on: Myco. Smegmatis S3254; assay: Minimum inhibitory concentration vs microorganisms; conditions: Wellcotest broth plus 7% lysed horse blood, 18 hours, 37°C
Description: as §2

[20] = tested on: Str. Faecalis CN478; assay: Minimum inhibitory concentration vs microorganisms; conditions: Wellcotest broth plus 7% lysed horse blood, 18 hours, 37°C
Description: as §2

[21] = biological target: T1, human dihydrofolate reductase (Homo sapiens, UniProt P00374); assay: Enzyme binding affinity (Ki) for human dihydrofolate reductase, Henderson equation; assay type: biochemical; conditions: 50mM Sorenson's phosphate buffer, pH 7, 45µM dihydrofolate, 65µM NADPH
T1 sequence (P00374 1-187): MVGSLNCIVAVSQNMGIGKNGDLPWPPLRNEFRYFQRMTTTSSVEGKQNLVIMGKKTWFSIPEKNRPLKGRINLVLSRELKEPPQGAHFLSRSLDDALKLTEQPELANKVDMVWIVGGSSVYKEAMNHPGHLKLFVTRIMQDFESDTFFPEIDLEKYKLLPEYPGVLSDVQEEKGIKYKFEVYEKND

[22] = tested on: Sal. Typhosa CN512; assay: Minimum inhibitory concentration vs microorganisms; assay type: cell-based; conditions: Wellcotest broth plus 7% lysed horse blood, 18 hours, 37°C
[23] = tested on: Bord. Bronchisep-tica CN385; assay: Minimum inhibitory concentration vs microorganisms; conditions: Bord. Bronchiseptica CN385; Wellcotest broth plus 7% lysed horse blood, 18 hours, 37°C
Description: as §2

[24] = biological target: T1, human dihydrofolate reductase; assay: DHFR I50, human enzyme; assay type: biochemical
[25] = biological target: T2, DHFR (Candida albicans, UniProt P22906); assay: biochemical
T2 sequence (P22906 1-192): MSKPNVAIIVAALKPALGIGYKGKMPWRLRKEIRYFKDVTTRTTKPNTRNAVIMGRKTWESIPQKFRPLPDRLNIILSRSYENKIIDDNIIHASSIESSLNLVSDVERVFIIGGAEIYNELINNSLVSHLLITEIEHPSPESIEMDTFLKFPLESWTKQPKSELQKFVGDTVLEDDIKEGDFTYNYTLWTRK

[26] = tested on: Shig. Flexneri CN6007; assay: Minimum inhibitory concentration vs microorganisms; conditions: Wellcotest broth plus 7% lysed horse blood, 18 hours, 37°C
Description: as §2

[27] = tested on: Mycobacterium avium complex (MAC); assay: In vitro activity vs Mycobacterium avium complex, radiometric respirometry (BACTEC); assay type: cell-based; conditions: seven (7) clinical isolates of Myco. avium
[28] = tested on: Vibrio Cholerae ATCC14035; assay: Minimum inhibitory concentration vs microorganisms; conditions: Wellcotest broth plus 7% lysed horse blood, 18 hours, 37°C
Description: as §2

Row | Compound | M I C [1] [µg/mL] | M I C [2] [µg/mL] | pEC50 [4] | pEC50 [5] | pEC50 [6] | pEC50 [7] | pEC50 [8] | pEC50 [9] | pEC50 [11] | pEC50 [12] | pEC50 [13] | M I C [14] | Tissue concentration brain [15] [µg/g] | M I C [16] | M I C [17] | M I C [18] [µg/mL] | M I C [19] [µg/mL] | M I C [20] | M I C [22] [µg/mL] | M I C [26] [µg/mL] | also measured
1 | CCC(CC)n1ccc2c3c(N)nc(N)nc3ccc21 [Compound 1, 1,3-Diamino-7-(1-ethylpropyl)-7H-pyrrolo(3,2-f)quinazoline] | 0.1 | 0.1 | 8.92 | 7.35 | 8.08 | 7.42 | 7.15 | 9.15 | 8.57 | 8.66 | 8.46 | 0.1 µg/mL | 5.0 | 0.1 µg/mL | 0.1 µg/mL | 0.3 | 0.1 | 0.1 µg/mL | 0.1 | 0.1 | pEC50 [3]: 8.72; pEC50 [10]: 8.32; Tissue concentration plasma [15]: 0.70 µg/mL; pKi [21]: 10.72; M I C [23]: 0.1 µg/mL; pIC50 [24]: > 9.00; pIC50 ([25]; C.albicans enzyme, read-out: DHFR I50 C.albicans): 8.35
2 | CCC(CC)n1c(C)cc2c3c(N)nc(N)nc3ccc21 [Compound 2, 1,3-Diamino-7-(1-ethylpropyl)-8-methyl-7H-pyrrolo(3,2-f)quinazoline] | 0.003 | 0.01 | 9.52 | 7.92 | 9.40 | 9.05 | 7.89 | > 9.00 | 9.52 | 9.15 | 9.10 | .0001 µg/mL | 2.4 | .0001 µg/mL | .0001 µg/mL | 0.03 | 0.001 | .0001 µg/mL | 0.1 | 0.003 | inhibition at 1 µg/mL ([27]; 1µg/ml, read-out: range of growth inhibition): 69 to 97%; inhibition at 5 µg/mL ([27]; 5µg/ml, read-out: range of growth inhibition): 97 to 99%; M I C ([27]; roughly translated from growth inhibition, read-out: average MIC): ~1.6 µg/mL; Tissue concentration plasma [15]: 0.36 µg/mL; M I C [28]: .0001 µg/mL; pKi [21]: 11.85; M I C [23]: 0.003 µg/mL; pIC50 [24]: > 9.00; pIC50 [25]: > 9.00
3 | COc1cc(Cc2cnc(N)nc2N)cc(OC)c1OC [Trimethoprim, 2,4-diamino-5-(3,4,5-trimethoxybenzyl)pyrimidine, reference compound] | 0.1 | 0.1 | – | – | – | – | – | – | – | – | – | 0.1 µg/mL | – | 0.1 µg/mL | 0.1 µg/mL | >100 | 0.3 | 0.1 µg/mL | 0.1 | 0.1 | M I C [28]: 0.3 µg/mL
